Reference: patent US20260345615A1, “COMPOSITIONS COMPRISING SOTORASIB” (AMGEN INC., priority 2023, published 2026)

Tests used:
[1] = tested on: KRAS^G12C; conditions: role: inhibitor, background statement, cited from earlier work
[2] = Stability testing: dissolution (FaSSIF), Example 2; format: physicochemical; conditions: FaSSIF pH 6.50; all crystalline samples, first two timepoints of amorphous samples
Experimental: (§1) Stability testing of the three ASDs prepared in Example 1 was conducted over 2 months (T=0, 1 month and 2 months) using XRPD, TGA, DSC, PSD, and dissolution tests (FaSSIF and biorelevant media).
(§2) Stability Testing: ASD samples were stored in low density polyethylene (LPDE) bags placed in a heat-sealed aluminum foil pouch along with desiccant. Foil pouches were then placed into a stability chamber at 25 °C/60% RH and taken out for stability testing (XRPD, TGA, DSC PSD, dissolution and biorelevant dissolution) at specified timepoints.
Dissolution (FaSSIF): The dissolution properties of ASDs 1-3 and the control spray-dried sotorasib were assessed as described herein. 5 mg of amorphous sotorasib (control), 5 mg of crystalline sotorasib (control), and 20 mg of ASDs1-3 as listed in Table 1 were added to separate 20 mL vials of FaSSIF (pH 6.50) and samples were collected at 5, 15, 20, 30, 60, 120, 180 min timepoints. […] The mobile phases were A:Water with 0.1% trifluoroacetic acid and B:Acetonitile with 0.1% trifluoroacetic acid. The method was a reverse gradient of 5% B 95% A to 98% B 2% A over 15 minutes using a wavelength 254 nm for detection and quantification.

[3] = Particle size distribution (laser diffraction), Example 1; format: physicochemical; conditions: Example 1, Table 1
Excerpt: Particle Size Distribution (PSD): Analysis of each of the samples was obtained using a Sympatec Helos laser diffraction analyzer. The results of the particle size analysis are shown in Table 1 (D10, D50, and D90 values).

[4] = Stability testing: XRPD, Example 2; format: physicochemical
Experimental: as §1, §2
X-Ray Powder Diffraction (XRPD) Analysis: XRPD data was obtained using a Panalytical PW3040-PRO diffractometer. Samples were scanned at room temperature (25 °C) in continuous mode from 3-45 degrees (2θ) with step size of 0.03 degrees at 45 kV and 40 mA with CuKα radiation (1.54 A). The incident beam path was equipped with a primary soller slit 0.04 rad and a divergence slit 0.38 mm, in a fixed slit mode. Samples were prepared on a low background sample holder and placed on a spinning stage with a rotation time of 4 sec.

[5] = Stability testing: Thermal Gravimetric analysis (TGA), Example 2; format: physicochemical
Experimental: as §1, §2
Thermal Gravimetric analysis (TGA): TGA was performed to evaluate presence for residual solvent and any thermal transitions which may result in weight loss. TGA was performed on a TA Instruments Discovery 550 Series analyzer at 5 °C/min from ambient temperature to 200 °C in a platinum pan under dry nitrogen at 25 ml/min. Sample size was ~2-8 mg.

[6] = Stability testing: DSC, Tg, Example 2; format: physicochemical
Experimental: as §1, §2
Differential Scanning Calorimetry (DSC) Analysis: DSC data is collected using a TA Instruments Q2500 DSC. Approximately, 2-6 mg of the sample was placed in a Tzero aluminum pan and sealed with Tzero lid. Method Log consist of equilibrating to −20 °C, holding Isothermal for 1.00 min, Ramping 10.00 °C/min to 160.0 °C, holding isothermal for 1.00 min, bringing down to Ramp of 10.00 °C/min to −20.00 °C, holding isothermal for 1.00 min, ramping 10.00 °C/min to 200 °C, marking end of cycle. Conditions were done under a nitrogen purge of about 50 mL/min.

[7] = Stability testing: particle size distribution (PSD), Example 2; format: physicochemical
Experimental: as §1, §2
Particle Size Distribution (PSD): Analysis of each of the samples was obtained using a Sympatec Helos laser diffraction analyzer. The results are shown below (D10, D50, and D90 values).

## C=CC(=O)N1CCN(c2nc(=O)n(-c3c(C)ccnc3C(C)C)c3nc(-c4c(O)cccc4F)c(F)cc23)[C@@H](C)C1 (atropisomer, axis not shown) [Sotorasib]
[1]; (M)- v. (P)-configuration
  activity at the target protein, atropisomers: more active at the target protein than the (P)-configuration
[1]
  inhibition of KRAS^G12C: specifically and irreversibly inhibits

## C=CC(=O)N1CCN(c2nc(=O)n(-c3c(C)ccnc3C(C)C)c3nc(-c4c(O)cccc4F)c(F)cc23)[C@@H](C)C1 [crystalline sotorasib]
[2]
  solubility (samples not diluted): low solubility

## C=CC(=O)N1CCN(c2nc(=O)n(-c3c(C)ccnc3C(C)C)c3nc(-c4c(O)cccc4F)c(F)cc23)[C@@H](C)C1 [sotorasib amorphous]
[3]
  D10: <1.0 μm
  D50: <4.0 μm
  D90: <16 μm
[4]; T = 0
  XRPD result: amorphous
[4]; T = 1 month, 25 °C/60% RH
  XRPD result: amorphous
[4]; T = 2 months, 25 °C/60% RH
  XRPD result: amorphous
[5]; T = 0
  TGA result (weight change): <1%
[5]; T = 1 month, 25 °C/60% RH
  TGA result (weight change): <1%
[5]; T = 2 months, 25 °C/60% RH
  TGA result (weight change): <1%
[6]; T = 0, n1
  DSC result - Tg: n1: 147.7 °C
[6]; T = 0, n2
  DSC result - Tg: n2: 146.9 °C
[6]; T = 1 month, n1, 25 °C/60% RH
  DSC result - Tg: n1: 148.4 °C
[6]; T = 1 month, n2, 25 °C/60% RH
  DSC result - Tg: n2: 148.3 °C
[6]; T = 2 months, n1, 25 °C/60% RH
  DSC result - Tg: n1: 149.1 °C
[6]; T = 2 months, n2, 25 °C/60% RH
  DSC result - Tg: n2: 148.6 °C
[7]; T = 0
  PSD result - D10: 0.8 μm
  PSD result - D50: 3.6 μm
  PSD result - D90: 13.4 μm
[7]; T = 1 month, 25 °C/60% RH
  PSD result - D10: 0.8 μm
  PSD result - D50: 4.2 μm
  PSD result - D90: 14.4 μm
[7]; T = 2 months, 25 °C/60% RH
  PSD result - D10: 0.8 μm
  PSD result - D50: 3.8 μm
  PSD result - D90: 13.5 μm
